# Results as given in patent US9303021B2, “Methods for treating cognitive disorders using 3-aryl-3-hydroxy-2-amino-propionic acid amides, 3-heteroaryl-3-hydroxy-2-amino-propionic acid amides and related compounds” (Allergan, Inc., priority 2007, dated 2016).
# Columns and labels:
# C57B/6 male mice = assay: Passive (inhibitory) avoidance task; type: in vivo; details: for Training latency Day 0 (latency to enter the dark/shock compartment): Day 0 is pre-treatment, N = 6/group; for Training latency Day 0 (latency to enter the dark/shock compartment) / Testing latency Day 1 (latency to enter the dark/shock compartment) / Testing latency Day 4 (latency to enter the dark/shock compartment) / Testing latency Day 7 (latency to enter the dark/shock compartment): in s; for Testing latency Day 1 (latency to enter the dark/shock compartment) / Testing latency Day 4 (latency to enter the dark/shock compartment) / Testing latency Day 7 (latency to enter the dark/shock compartment): max trial 180 sec; for memory for the shock-associated environment: IP post-training injections, young mice, versus vehicle
# Source text: (§1) The passive avoidance task exploits the tendency for rodents to avoid environments previously associated with an aversive stimulus (e.g. shock) and is therefore a reliable measure of emotional memory. The Morris water maze (MWM) task, a test of spatial learning and memory, requires that the animal learns the spatial locations of various extra-maze cues in order to accurately locate an escape platform that is hidden beneath the surface of the water in a water tank.
# Table 2, below, indicates the effects of compounds of the invention in a passive avoidance task (latency to enter the dark/shock compartment as dependent variable). Data were analyzed with One-Way ANOVAs followed by Bonferroni-corrected post-hoc measures (required P value dependent upon number of comparisons). The table below includes data from Vehicle-treated mice and mice treated with Compound A and Compound B.
# All treatments were administered IP immediately post-training.
# Passive Inhibitory Avoidance
# C57B/6 male mice (20-25 g; n=6-8/group) were used in this study.
# One Day 0, animals were individually placed in the bright side of a 2-chambered inhibitory avoidance box. Mice were given 35 seconds to acclimate after which a door between the two compartments was lifted and the animals were allowed to cross over into the dark compartment. Once they crossed over, the gate would close and the animal would receive a mild (0.15 mA, 2 sec) footshock. Memory retention for the shock-associated environment was evaluated 24 hours (Day 1), 4 (Day 4) and 7 (Day 7) days later. On each of the three memory retention tests (Days 1, 4, and 7), the mouse was given 15 seconds to acclimate before the gate was lifted. Latency to enter the dark (shock) compartment was measured and considered an index of passive fear avoidance. Maximum trial length=180 sec.
# aged rats = assay: Morris water maze task; type: in vivo
# Source text: as §1
# Table 3, below, indicates the effects of Compound C in the Morris water maze task (mean escape latencies across testing days are shown).
# Data were analyzed with a Mann-Whitney U Test. Mean escape latency indicates the group mean over three sessions to escape onto the hidden platform. Data are shown for days 7-11 (the water maze training days); animals were dosed twice daily (PO) with 10 mg/kg Compound No. 1 or vehicle (as indicated) on Days 1-6 prior to water maze training.
# The Morris Maze consisted of a circular water tank (150 cm in diameter) filled with water and maintained at 27° C. with an escape platform (15 cm in diameter) 18 cm from the perimeter always in the same position 2 cm beneath the surface of the water. The water was made opaque by addition of a non-toxic coloring agent rendering the platform invisible. The testing was performed under light of moderate intensity.
# The animals were given 5 training sessions over 5 consecutive days. Each training session consisted of 3 consecutive trials in the Morris Maze separated by 120 seconds. For each trial the animal was placed in the maze at one of two starting points equidistant from the escape platform and allowed to find the escape platform. The animal was left on the escape platform for 60 seconds followed by a 60-second rest in an individual cage before starting a new trial. […] During the 3 trials the animals started the maze from the different starting points in a randomly determined order per animal.
# The trials were video-recorded and the behavior of the animals was analyzed using a video-tracking system (Panlab: Smart). The principal measure taken was the escape latency (time to find the hidden platform) at each trial. Additional measures (path length (distance traveled to find the hidden platform) and average speed) were also measured.
# Aged animals show amnesia in this task as indicated by a lower capacity to reduce their escape latencies from trial to trial.
# 15 aged rats were studied per group. The experiment also included a young control group. The test was performed blind.
# Compound C was evaluated at the dose of 10 mg/kg, administered p.o., and compared with a vehicle control group. The animals received the assigned treatment twice daily for 6 days prior to water-maze training. Twice daily administration continued during training, with one administration 60 minutes before each training session and the second administration between either 8.30-9.30 am or 4:30-5:30 pm, whichever was furthest from the training session for that particular animal.
# The experiment therefore included 3 groups.
# Data were analyzed by comparing treated groups with aged control using Mann Whitney U tests. In addition, the data were submitted to a two-factor analysis of variance (with age and session as factors, with repeated measures for session).
# [1] = 1 mg/kg IP given immediately post-training
# [2] = 1 mg/kg IP immediately post-training
# [3] = 10 mg/kg IP given immediately post-training
# [4] = 10 mg/kg IP immediately post-training
Structure (SMILES),Training latency Day 0 (latency to enter the dark/shock compartment) (C57B/6 male mice; [1]),Testing latency Day 1 (latency to enter the dark/shock compartment) (C57B/6 male mice; [2]),Testing latency Day 4 (latency to enter the dark/shock compartment) (C57B/6 male mice; [2]),Testing latency Day 7 (latency to enter the dark/shock compartment) (C57B/6 male mice; [2]),Training latency Day 0 (latency to enter the dark/shock compartment) (C57B/6 male mice; [3]),Testing latency Day 1 (latency to enter the dark/shock compartment) (C57B/6 male mice; [4]),Testing latency Day 4 (latency to enter the dark/shock compartment) (C57B/6 male mice; [4]),Testing latency Day 7 (latency to enter the dark/shock compartment) (C57B/6 male mice; [4]),memory for the shock-associated environment (C57B/6 male mice),"escape latency of aged rats over the training period (aged rats; 10 mg/kg twice daily for 6 days prior to and during the experiment, compared with aged controls)","effect on escape latency, pooled data of the last 3 training sessions (aged rats; 10 mg/kg twice daily, aged rats versus aged controls)","Mean Escape Latency Day 7 (aged rats; aged rats, 10 mg/kg p.o. twice daily, Day 7 (1st training day))","Mean Escape Latency Day 8 (aged rats; aged rats, 10 mg/kg p.o. twice daily, Day 8)","Mean Escape Latency Day 9 (aged rats; aged rats, 10 mg/kg p.o. twice daily, Day 9)","Mean Escape Latency Day 10 (aged rats; aged rats, 10 mg/kg p.o. twice daily, Day 10)","Mean Escape Latency Day 11 (aged rats; aged rats, 10 mg/kg p.o. twice daily, Day 11)"
N[C@@H](C(=O)N1CCCC1)[C@@H](O)c1ccncc1 [Compound A],14.26,64.34,65.52,54.32,9.88,82.58,58.33,47.87,significantly improved memory,–,–,–,–,–,–,–
N[C@@H](C(=O)N1CCCCC1)[C@@H](O)c1ccsc1 [Compound B],6.58,95.42,81,43.55,8.43,126.27,83.4,56.22,significantly improved memory,–,–,–,–,–,–,–
N[C@@H](C(=O)N1CCCC1)[C@@H](O)c1ccncc1 [Compound C],–,–,–,–,–,–,–,–,–,decreased the escape latency,statistically significant,69.9 ± 4.0 s,49.3 ± 5.4 s,41.0 ± 1.8 ⋄ sec,28.0 ± 2.2 s,30.4 ± 3.4 s
